Test system: HCV replicon (Huh-7 luc/neo cells)
Experiment: Suppression of HCV replicon replication by conditioned media from PBMC
Format: cell-based, HCV type 1b
Conditions: Hepatitis C virus, compound concentration applied to PBMCs giving 50% reduction of replicon luciferase activity, read-out: PBMC-HUH7_EC50
Description: Activation of human TLR7 results in robust production of interferon by plasmacytoid dendritic cells present in human blood. The potential of compounds to induce interferon was evaluated by looking at the antiviral activity in the HCV replicon system upon incubation with conditioned media from peripheral blood mononuclear cells (PBMC). The HCV replicon assay is based on a bicistronic expression construct, as described by Lohmann et al. (Science (1999) 285: 110-113; Journal of Virology (2003) 77: 3007-15 3019) with modifications described by Krieger et al. (Journal of Virology (2001) 75: 4614-4624). The assay utilized the stably transfected cell line Huh-7 luc/neo harboring an RNA encoding a bicistronic expression construct comprising the wild type NS3-NS5B regions of HCV type 1b translated from an Internal Ribosome Entry Site (IRES) from encephalomyocarditis virus (EMCV), preceded by a reporter gene (Firefly-luciferase) and a selectable marker gene (neoR, neomycine phosphotransferase). The construct is flanked by 5′ and 3′ NTRs (non-translated regions) from HCV type 1b. Continued culture of the replicon cells in the presence of G418 (neoR) is dependent on the replication of the HCV RNA. The stably transfected replicon cells that replicate HCV RNA autonomously and to high levels, encoding inter alia luciferase, were used for profiling of the conditioned cell culture media.
Briefly, PBMCs were prepared from buffy coats of at least two donors using a standard Ficoll centrifugation protocol. Isolated PBMCs were resuspended in RPMI medium supplemented with 10% human AB serum and 2×10^5 cells/well were dispensed into 384-well plates containing compounds (70 μL total volume). After overnight incubation, 10 μL of supernatant was transferred to 384-well plates containing 2.2×10^3 replicon cells/well in 30 μL (plated the day before). Following 24 hours of incubation, replication was measured by assaying luciferase activity using 40 μL/well Steady Lite Plus substrate (Perkin Elmer) and measured with ViewLux ultraHTS microplate imager (Perkin Elmer). The inhibitory activity of each compound on the Huh7-luc/neo cells were reported as EC50 values, defined as the compound concentration applied to the PBMCs resulting in a 50% reduction of luciferase activity which in turn indicates the degree of replication of the replicon RNA on transfer of a defined amount of PBMC culture medium. Recombinant interferon α-2a (Roferon-A) was used as a standard control compound.

Structure (SMILES) | EC50 [nM]
CCCCNc1nc(N)nc2cc(OC)c(OC)cc12 [Compound 1] | 1900
CCCC[C@@H](CCO)Nc1nc(N)nc2cc(OC)c(OC)cc12 [Compound 3] | 600

— US8916575B2, “Quinazoline derivatives for the treatment of viral infections and further diseases” (Janssen R&D Ireland, priority 2011, dated 2014)
